# Reference: patent publication US20140314791A1, “METHODS OF TREATING CANCER” (DANA-FARBER CANCER INSTITUTE, INC., priority 2012, published 2014)
# Experiments:
# [1] = tested on: Lkb1-null (t2, t4, and t5) cells; experiment: Cell proliferation assay with CHEK1 inhibitors (CCK-8), Lkb1-null; assay type: cell-based, mouse
# [2] = tested on: Lkb1-wt (634, 855, and 857) cells; experiment: Cell proliferation assay with CHEK1 inhibitors (CCK-8), Lkb1-wt; assay type: cell-based, mouse; details: read-out: 50% growth inhibition (GI50) concentration
# [3] = tested on: Lkb1-null cells; experiment: Array-based viral infection and cell proliferation assay (validation), Lkb1-null; design: species or system mouse; details: for Growth of Lkb1-wt/Lkb1-null in array-based validation: Table 6; for Null ave-GR: validation, 5 days post infection, alamarBlue
# Protocol: (§1) (C) Validation study. Relative viability of Lkb1-wt and Lkb1-null cells infected with 340 individual hairpins for 5 days. Genes of interest are highlighted by the colors indicated.
# (§2) For array-based viral infection and assessment of proliferation, 2.5 μl virus was mixed with 250 cells in 100 μl medium containing 8 μg/ml polybrene per well in 96-well plates. The plates were spun at 2250 rpm/37° C. for 30 min. Immediately after spinning, supernatants were gently aspirated off and 100 μl fresh medium was added to each well of the 96-well plates. After 2 days incubation, medium was gently aspirated off and 100 fresh medium containing 3 μg/ml puromycin was added to each well of the 96-well plates. The plates were back to culture for additional 3 days and then the viable cells were monitored by alamarBlue (Invitrogen) assay according to manufacturer's instructions.
# (§3) To identify Lkb1-null-selective essential genes, a synthetic lethal screen was performed using a pooled 40K murine shRNA lentiviral library for each of the Lkb1-wt and Lkb1-null cell lines described above. Relative abundance of shRNAs in each cell line sample was determined by deep-sequencing analysis, and for every shRNA, a log 2 Fold Change (log 2FC) value was calculated from the difference in relative abundance at a late time point after infection versus the initial shRNA-infected sample. An unsupervised hierarchical clustering analysis of the ranked hairpins from the triplicate pooled shRNA library screens of Lkb1-wt and Lkb1-null mouse cancer cells is shown in FIG. 1A. […] The ranked hairpins were collapsed by using two methods, a RIGER analysis (KS t-test based statistics) and a weighted second best analysis to rank genes that selectively impaired proliferation/viability in Lkb1-null cells. A union of 344 genes, identified by the top 100 individual hairpins for 88 genes (Table 1) and the top 200 genes from both the KS (Table 2) and weighted second best (Table 3), was nominated as the initial prioritized list (FIG. 1B). 340 shRNAs, targeting 70 candidate genes from this prioritized list, were chosen for validation (Table 4). The 70 genes consisted of the top 10 candidates from the KS analysis, as well as 60 others involved in a range of biological processes in an attempt to represent all biological categories in the validation process. Validation was performed in an array format with an assay of relatively short duration (5 days post infection) compared to the primary pooled screen (28 days), which should be a more stringent selection, as it required the anti-proliferative effects to manifest in a short time period. […] Dtymk, Check1, and Pdhb are the top 3 candidate genes, each with 3 hairpins that scored in the validation assay (FIG. 1C).
# [4] = tested on: Lkb1-null versus Lkb1-wt cell lines; experiment: Large-scale pooled shRNA library screening (murine 40K pool); assay type: cell-based, mouse; details: for Hairpin-rank in pooled shRNA screen: Table 6; for # Hairpins 1000: number of the gene's hairpins ranked within 1000; for # Hairpins 5000: number of the gene's hairpins ranked within 5000; for # Hairpins 10000: number of the gene's hairpins ranked within 10000
# [5] = tested on: Lkb1-wt cells; experiment: Array-based viral infection and cell proliferation assay (validation), Lkb1-wt; design: species or system mouse; details: 5 days post infection, alamarBlue
# Protocol: as §1, §2, §3
# [6] = tested on: Lkb1-wt (634, 855, and 857) and Lkb1-null (t2, t4, and t5) cells; experiment: Proliferation assay of shRNA-transduced cells (CellTiter-Glo); assay type: cell-based, mouse; details: in vitro, puromycin 3 μg/ml
# Protocol: Viable cells were measured daily using Promega's CellTiter-Glo Assay. Two independent sets of transductions into the 6 cell lines were shown: the first set used shGFP, shDtymk-1, and shChek1-4 (upper panels), and the second set used shGFP, shDtymk-3, and shChek1-1 (lower panels).
# Lentiviral production and target cell transduction were performed according to previously description (Moffat et al., 2006). Briefly, 293T cells were co-transfected with pLenti-vector, pCMV-dR8.74psPAX2, and pMD2.G using TransIT-LT1 transfection reagent (Mirus). Thirty-six h after transfection, the supernatant was harvested and spun at 3000 rpm/4° C. for 10 min, and then incubated with target cells in the presence of 8 μg/ml polybrene (Sigma) for 24 h. Two days after infection, the cells were collected for further analysis as indicated in the presence of 3 μg/ml Puromycin (Invitrogen).
# Cells were plated into 96-well plates at 2000 cells per well in 100 μl, with addition of puromycin at 3 μg/ml for shRNA lentivirus infected cells, or with addition of variable doses of drug for drug treatment effects. Viable cells were measured daily or for a period of up to 3 days either by CellTiter-Glo Luminescent Cell Viability Assay (Promega) or by Cell Counting Kit-8 (CCK-8) (Dojindo) according to the manufacturer's instructions. All proliferation assays were performed in triplicate wells.
# Depletion of DTYMK and CHEK1 was confirmed by Western blot (FIG. 11B).
# [7] = tested on: Chek1; details: Lkb1-wt 634 cells, normalized to shGFP
# [8] = tested on: Lkb1-wt (634 and 857) and Lkb1-null (t2 and t4) tumors; experiment: Tumor development of shRNA-transduced cells implanted into athymic nude mice; assay type: in vivo; details: doxycycline treatment for 3 weeks
# Protocol: (C) 1×10^6 Lkb1-wt (634 and 857) and Lkb1-null (t2 and t4) cells transduced with the indicated shRNA were implanted into athymic nude mice for 3 weeks. Tumor volume (mm^3) was calculated as […]. The data represent mean±SD for 4 mice. Lkb1-wt 634 and Lkb1-null t4 tumors with the indicated shRNAs were shown (D).
# To investigate whether reduced expression of Dtymk or Chek1 inhibited tumor development in vivo, Lkb1-wt (634 and 857) and Lkb1-null (t2 and t4) cells transduced with pTetOn-shGFP, pTetOn-shDtymk-3, or pTetOn-shChek1-4 were implanted into athymic nude mice.
# [9] = tested on: Dtymk; experiment: QPCR analysis of Dtymk knockdown in Lkb1-wt 634 cells; details: normalized to shGFP
# [10] = gene-level KS score over all hairpins of the gene (Table 2, Top 200 genes by KS), only the first hairpin id is printed
# [11] = rank of the gene by NES, KS analysis
Substance,Growth of Lkb1-wt/Lkb1-null in array-based validation [3],Null ave-GR [3],Hairpin-rank in pooled shRNA screen [4],WT ave-GR [5],"cell growth compared to shGFP control, Lkb1-null versus Lkb1-wt [6]",mRNA remaining (by qPCR) [7],mRNA remaining (by qPCR) [9],other results
AZD7762,,,,,,,,inhibition of Lkb1-null cells stronger than Lkb1-wt cells [1]: 3 fold; GI50 ([1]; read-out: 50% growth inhibition (GI50) concentration): 90 nM; GI50 [2]: 275 nM
shChek1-1: shRNA hairpin GCTGTGAATAGAATAACTGAA targeting Mouse Chek1,2.14,0.73,327,1.57,inhibited Lkb1-null cell growth more strongly than the growth of Lkb1-wt cells,35.50%,,
shChek1-2: shRNA hairpin GCCACGAGAATGTAGTGAAAT targeting Mouse Chek1,1.26,0.85,14869,1.07,,43.90%,,
shChek1-3: shRNA hairpin CCCATGTAGTAGTATCACTTT targeting Mouse Chek1,1.64,0.27,23815,0.45,,42.10%,,"NES [4, 10]: 1.57; NES ([4]; gene-level normalized enrichment score over all hairpins of the gene): 1.520; Gene rank ([4]; gene-level rank by NES): 119; # Hairpins 500 ([4]; number of the gene's hairpins ranked within 500): 1; # Hairpins 1000 [4]: 1; # Hairpins 5000 [4]: 1; # Hairpins 10000 [4]: 1; # HP 500 ([4]; number of the gene's hairpins ranked within top 500): 1; # HP 1000 ([4]; number of the gene's hairpins ranked within top 1000): 1; # HP 5000 ([4]; number of the gene's hairpins ranked within top 5000): 1; # HP 10000 ([4]; number of the gene's hairpins ranked within top 10000): 1; Gene rank [4, 11]: 61"
shChek1-4: shRNA hairpin GTGGAAGAAGAGTTGTATGAA targeting Mouse Chek1,2.31,0.30,26693,0.70,inhibited Lkb1-null cell growth more strongly than the growth of Lkb1-wt cells,30.20%,,tumor growth of Lkb1-null tumors expressing shRNA versus shGFP and Lkb1-wt tumors [8]: grew significantly slower
shChek1-5: shRNA hairpin GCAACGGTATTTCGGCATAAT targeting Mouse Chek1,1.2,0.96,23858,1.15,,40.70%,,
shDtymk-2: shRNA hairpin CTTCTCTGCAAACCGCTGGGA targeting Mouse Dtymk,1.18,1.03,19621,1.21,,,66.70%,
shDtymk-3: shRNA hairpin ACGGAACTAGAGGATCACTCT targeting Mouse Dtymk,2.96,0.28,100,0.83,inhibition was stronger in Lkb1-null cells,,27.80%,"tumor growth of Lkb1-null tumors expressing shRNA versus shGFP and Lkb1-wt tumors [8]: grew significantly slower; Hairpin rank ([4]; Top 100 shRNAs, ranked hairpin list of selectively essential hairpins in Lkb1-null background (log2FC)): 98"
shDtymk-4: shRNA hairpin GAAATCGGCAAGCTTCTGAAT targeting Mouse Dtymk (also Human DTYMK),1.67,0.51,28546,0.85,,,51.10%,
shDtymk-5: shRNA hairpin CAAGACCACGCAGGCCCTCAA targeting Mouse Dtymk (also Human DTYMK),1.05,1.06,5760,1.11,,,77.90%,"NES [4, 10]: 1.53; # Hairpins 1000 [4]: 1; # Hairpins 5000 [4]: 1; # Hairpins 10000 [4]: 2; Gene rank [4, 11]: 103"
